Values after ≈ are worked out from the molar mass of the structure shown.
Tests used:
Assay in all cases: MIC by microbroth dilution (NCCLS)
Assay type in all cases: cell-based
[1] = test system: Enterococcus faecalis ATCC29212; conditions: E. faecalis ATCC29212, Rif-S; BHI Broth
[2] = test system: Haemophilus influenzae ATCC10211; conditions: H. influenzae ATCC10211, Rif-S; BHI Broth with NAD and hematin
[3] = test system: Staphylococcus aureus ATCC29213 RpoB^D471Y
Method: (§1) Representative compounds were assayed for antimicrobial activity as follows: Minimum Inhibitory Concentrations (MICs) were determined by the microbroth dilution method as per NCCLS guidelines (National Committee for Clinical Laboratory Standards 2000), except that all growth incubations were conducted at 37° C. Bacterial cultures were tested in the following bacteriological media: S. aureus, S. epidermidis, and E. coli in Cation-Adjusted Mueller-Hinton Broth, S. pneumoniae in THY Broth supplemented with 1 mg/mL catalase under 5% CO2 atmosphere, S. pyogenes in THY Broth, E. faecalis in BHI Broth, H. influenzae in BHI Broth supplemented with 0.75 μL of 1 mg/mL NAD and 150 μL of 1 mg/ml hematin per 5 mL, and M. smegmatis in Middlebrook Broth plus ADC Enrichment.
(§2) S. aureus ATCC 29213 RpoB^H481Y is a rifampin-resistant strain with a mutation in RNA polymerase. […] S. aureus ATCC 29213 GyrA^S84LParC^S80F is a quinolone-resistant strain with mutations to both DNA gyrase and topoisomerase IV.

[4] = test system: Staphylococcus aureus ATCC29213 GyrA^S84L ParC^S80F; conditions: S. aureus ATCC29213 GyrA^S84L ParC^S80F, FQ-R
Method: as §1, §2

[5] = test system: Staphylococcus aureus ATCC29213 RpoB^H481Y
Method: as §1, §2

[6] = test system: Streptococcus pyogenes ATCC19615; conditions: S. pyogenes ATCC19615, Rif-S; THY Broth
[7] = test system: Staphylococcus epidermidis ATCC 12228; conditions: S. epidermidis ATCC 12228, Rif-S
[8] = test system: Escherichia coli ATCC25922; conditions: E. coli ATCC25922, Rif-S; Cation-Adjusted Mueller-Hinton Broth
[9] = test system: Streptococcus pneumoniae ATCC6303; conditions: S. pneumoniae ATCC6303, Rif-S; THY Broth with catalase, 5% CO2
[10] = test system: Staphylococcus aureus ATCC29213; conditions: S. aureus ATCC29213, Rif-S; Cation-Adjusted Mueller-Hinton Broth, 37° C.
[11] = Staphylococcus aureus, ATCC29213

CO[C@H]1/C=C/O[C@@]2(C)Oc3c(C)c(O)c4c(O)c(c(/C=N/N5CCN(C)CC5)c(O)c4c3C2=O)NC(=O)/C(C)=C\C=C\[C@H](C)[C@H](O)[C@@H](C)[C@@H](O)[C@@H](C)[C@H](OC(C)=O)[C@@H]1C [Rifampin]
Antimicrobial activity (MIC range) [1]: 0.98 µg/mL | Antimicrobial activity (MIC range) [2]: 0.24 µg/mL | Antimicrobial activity (MIC range) ([3]; S. aureus ATCC29213 RpoB^D471Y, Rif-R): 8 µg/mL | MIC [3, 11]: 8 µg/mL (≈ 9.72 µM) | Antimicrobial activity (MIC range) [4]: 0.008 µg/mL | Antimicrobial activity (MIC range) ([5]; S. aureus ATCC29213 RpoB^H481Y, Rif-R): >64 µg/mL | MIC [5, 11]: > 64 µg/mL | Antimicrobial activity (MIC range) [6]: 0.013 µg/mL | Antimicrobial activity (MIC range) [7]: 0.03 µg/mL | Antimicrobial activity (MIC range) [8]: 16 µg/mL | Antimicrobial activity (MIC range) [9]: 0.061 µg/mL | Antimicrobial activity (MIC range) [10]: 0.008 µg/mL

Source: patent publication US7229996B2, “Rifamycin derivatives” (Cumbre Pharmaceuticals Inc., priority 2004, dated 2007)
